These are literature values, as cited in US20210022994A1, “SUSTAINED RELEASE TREPOSTINIL-COMPOUND MICROPARTICLE COMPOSITIONS” (Lupin Holdings, B.V., priority 2019, published 2021).

For the data set the following is noted: in human plasma.

As a reminder, the half-life is the time needed for the level to fall by half in the phase considered. Turning to `CCCCC[C@H](O)CC[C@@H]1[C@H]2Cc3cccc(OCC(=O)O)c3C[C@H]2C[C@H]1O` [treprostinil, (1R,2R,3aS,9aS)-[[2,3,3a,4,9,9a-hexahydro-2-hydroxy-1-[(3S)-3-hydroxyoctyl]-1Hbenz[f]inden-5-yl]oxy]acetic acid], the half-life was 2 to 4 h.
